Source: ChEMBL document CHEMBL1124716, “Structure and activity of hydrogenated derivatives of (+)-5-methyl-10,11-dihydro-5H-dibenzo[a,d]cyclohepten-5,10-imine (MK-801)” (J Med Chem, 1990)

Key:
[1] = N-methyl-D-aspartate glutamate receptor antagonist activity was determined in rat cortical slice preparation; type: functional
[2] = Ability to inhibit [3H]-MK-801 binding to N-methyl-D-aspartate glutamate receptor of rat cortical membranes

| Compound | Kb [1] [µM] | IC50 [2] [µM] |
| --- | --- | --- |
| OCCC12N[C@](O)(Cc3ccccc31)C1CCCCC12 (stereo not given in full) | 0.77 | 0.396 |
| CC12N[C@H](Cc3ccccc31)C1=C2CC=CC1 | – | 0.02 |
| CC12N[C@H](CC3CCCCC31)C1CCCCC12 (stereo not given in full) | 0.8 | 0.035 |
| CC12N[C@H](Cc3ccccc31)C1=CCCCC12 (stereo not given in full) | 0.3 | 0.06 |
| CC12N[C@H](CC3CCCCC31)c1ccccc12 (stereo not given in full) | 0.13 | 0.188 |
| CN1[C@@H]2Cc3ccccc3[C@@]1(C)C1CCCCC12 (stereo not given in full) | 0.29 | 0.096 |
| CC12N[C@H](Cc3ccccc31)C1=CC=CCC12 (stereo not given in full) | 0.27 | 0.021 |
| CN1C2(C)c3ccccc3C1(C)C1CCCCC12 (stereo not given) | – | 0.111 |
| CC12NC(Cc3ccccc31)CC1CCCCC12 (stereo not given) | 0.25 | 0.164 |
| CC12N[C@H](Cc3ccccc31)C1CCCCC12 (stereo not given in full) | 0.23 | 0.016 |
| CC12NC(Cc3ccccc31)c1ccccc12 (single isomer, unassigned) | 0.13 | 0.0305 |
| COc1ccc2c(c1)C1(C)N[C@@H]2CC2CCCCC21 (stereo not given in full) | 0.31 | 0.24 |
| CC12N[C@@H](C3CCCCC31)[C@H](O)c1ccccc12 (stereo not given in full) | 0.25 | 0.069 |
| OCCC12N[C@H](Cc3ccccc31)C1CCCCC12 (stereo not given in full) | 0.24 | 0.22 |
| CC12N[C@H](CC3=C1CCCC3)C1CCCCC12 (stereo not given in full) | 0.28 | 0.08 |
| CC12N[C@H](CC3=C1CCCC3)c1ccccc12 | 0.27 | 0.193 |
